Data set [1] concerns the target T1, human P450 1B1 (Homo sapiens, UniProt Q16678).
T1 sequence (Q16678 1-543): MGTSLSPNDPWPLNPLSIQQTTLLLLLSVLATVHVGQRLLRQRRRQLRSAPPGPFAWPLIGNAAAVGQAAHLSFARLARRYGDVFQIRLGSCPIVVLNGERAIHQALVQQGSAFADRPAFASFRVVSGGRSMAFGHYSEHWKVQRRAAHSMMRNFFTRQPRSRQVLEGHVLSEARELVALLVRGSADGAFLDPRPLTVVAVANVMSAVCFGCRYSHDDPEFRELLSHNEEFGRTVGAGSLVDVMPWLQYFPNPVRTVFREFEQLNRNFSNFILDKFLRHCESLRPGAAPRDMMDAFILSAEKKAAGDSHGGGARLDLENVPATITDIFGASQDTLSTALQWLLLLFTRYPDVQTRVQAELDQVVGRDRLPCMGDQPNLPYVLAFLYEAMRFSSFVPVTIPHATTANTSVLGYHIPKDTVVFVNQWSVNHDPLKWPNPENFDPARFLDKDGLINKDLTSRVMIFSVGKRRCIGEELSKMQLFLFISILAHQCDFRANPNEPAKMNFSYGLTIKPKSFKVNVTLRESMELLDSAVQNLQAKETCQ
The data set can be described thus: Spectral binding titration. The following applies: for Reverse Type I spectra ΔAmax/Ks (magnitude of spectral binding) / Reverse Type I spectra ΔAmax: purified P450 1B1 1.0 μM, ND = not detected at 100 μM; for Reverse Type I spectra ΔAmax: means ± SEs.

The target of data set [2] is T1, human P450 1B1. The data set can be described thus: Inhibition of 7-ethoxyresorufin O-deethylation. The settings on record: results not presented.
For data set [3], the target named is T1, human P450 1B1. The data set can be described thus: biochemical.
The target in data set [4] is P450 1A2 (Homo sapiens, UniProt P05177). The data set can be described thus: Inhibition of EROD activity catalyzed by P450 1A2. Type of data set: biochemical. The following applies: Figure 4.
Data set [5] concerns the target T1, human P450 1B1.
Data set [6] has as its target T1, human P450 1B1. The following applies: pH 7.4.

The structures appear in SMILES notation. Values joined by “and” are separate entries in the source; they are usually repeats but may differ in a detail not shown here. Identical values can stand only once. Like-named read-outs stand apart in the source and are kept apart here.

P450 1A2, sequence (P05177 whole entry): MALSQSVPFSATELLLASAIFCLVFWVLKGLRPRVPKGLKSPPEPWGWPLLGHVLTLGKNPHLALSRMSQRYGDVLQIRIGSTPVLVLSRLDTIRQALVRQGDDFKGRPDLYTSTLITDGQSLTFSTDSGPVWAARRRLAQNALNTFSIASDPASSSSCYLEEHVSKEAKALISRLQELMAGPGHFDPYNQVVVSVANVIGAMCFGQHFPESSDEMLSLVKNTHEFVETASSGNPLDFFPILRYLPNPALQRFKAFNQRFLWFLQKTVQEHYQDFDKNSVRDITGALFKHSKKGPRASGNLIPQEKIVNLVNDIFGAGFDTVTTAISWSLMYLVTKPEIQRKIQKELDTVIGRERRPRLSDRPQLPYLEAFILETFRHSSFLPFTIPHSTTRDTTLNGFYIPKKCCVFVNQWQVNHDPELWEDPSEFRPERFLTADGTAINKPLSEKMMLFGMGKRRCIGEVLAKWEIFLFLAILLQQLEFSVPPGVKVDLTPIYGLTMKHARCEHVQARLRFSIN

In general, IC50 refers to the concentration that gives 50% inhibition. Low values mean greater potency in that assay, high ones weaker potency in that assay. Take `CC#Cc1ccc(-c2ccccc2)cc1` [4PB, 4-(1-propynyl)biphenyl]: in data set [1], the “Reverse Type I spectra ΔAmax/Ks (magnitude of spectral binding)” value (from here on “Reverse Type I spectra ΔAmax/Ks”) is listed as 0.0062 and the “Reverse Type I spectra ΔAmax” value was determined as 0.074 ± 0.008. Further, the “manner of inhibition of P450 1B1 EROD activity” value in data set [2] is “mechanism-based manner”. For the same molecule, half-maximal inhibition in data set [3] (IC50) was put at 1800 ± 200 nM.
For orientation: Kd means the free concentration of one partner at which half of the binding sites on the other are occupied at equilibrium, for simple one-to-one binding. In the case of `O=c1cc(-c2ccccc2)oc2ccc3ccccc3c12` [BNF, β–naphthoflavone, reference compound], in data set [1], the affinity, expressed as Kd, was 13000 ± 1200 nM; the “Reverse Type I spectra ΔAmax/Ks” value is given as 0.0061; the “Reverse Type I spectra ΔAmax” value stood at 0.079 ± 0.009. The molecule further yielded an IC50 in data set [3] of 4.1 ± 0.4 nM.
Turning to `Oc1ccc(/C=C/c2cc(O)cc(O)c2)cc1` [resveratrol (Res), resveratrol, reference compound], in data set [1], the Kd was found to be 28000 ± 3300 nM, the “Reverse Type I spectra ΔAmax/Ks” value is recorded as 0.0012 and the “Reverse Type I spectra ΔAmax” value came out at 0.034 ± 0.004. This molecule also gave an IC50 in data set [3] of 1200 ± 200 nM.
Turning to `CC#Cc1cc2ccccc2c2ccccc12` [9PPh, 9-(1-propynyl)phenanthrene], in data set [1], the “Reverse Type I spectra ΔAmax/Ks” value stood at 0.0153 and the “Reverse Type I spectra ΔAmax” value was determined as 0.049 ± 0.002. The same molecule gave an IC50 in data set [3] of 160 ± 30 nM.
In the case of `CC#Cc1ccc2c(ccc3ccccc32)c1` [2PPh, 2-(1-propynyl)phenanthrene], in data set [1], the “Reverse Type I spectra ΔAmax/Ks” value is on record as 0.0305 and the “Reverse Type I spectra ΔAmax” value stood at 0.067 ± 0.005. The IC50 in data set [3] stood at 150 ± 20 nM.
On to `c1ccc2ccccc2c1` [naphthalene, reference compound], for which the IC50 in data set [3] was ~26000 nM and 26000 nM. Moreover, the “inhibition of P450 1A2 EROD (in words)” value in data set [4] is given as “weak”.
As to `COc1cccc(-c2cc(=O)c3ccccc3o2)c1` [3MF, 3′-methoxyflavone], in data set [1], binding was characterised by a dissociation constant (Kd) of 51000 ± 4100 nM, the “Reverse Type I spectra ΔAmax/Ks” value is reported as 0.0006 and the “Reverse Type I spectra ΔAmax” value turned out to be 0.029 ± 0.001. The IC50 in data set [3] was 150 ± 20 nM.
For `COc1cccc(-c2cc(=O)c3c(O)cc(O)cc3o2)c1` [3M57DHF, 3′-methoxy-5,7-dihydroxyflavone], in data set [1], the Kd is 20000 ± 3000 nM, the “Reverse Type I spectra ΔAmax/Ks” value is 0.0037 and the “Reverse Type I spectra ΔAmax” value is given as 0.075 ± 0.008. This molecule also showed an IC50 in data set [3] of 110 ± 20 nM.
In turn, `CCC#Cc1ccc(-c2ccccc2)cc1` [4BuB, 4-butinylbiphenyl] showed an IC50 in data set [5] of 1500 ± 300 nM. In data set [6], binding was put at a Kd of 54000 ± 6200 nM.
Take `C#Cc1ccc(-c2ccccc2)cc1` [4EB, 4-ethynylbiphenyl]: in data set [1], the “Reverse Type I spectra ΔAmax/Ks” value was found to be 0.0030 and the “Reverse Type I spectra ΔAmax” value came out at 0.023 ± 0.001. Moreover, inhibition in data set [3] was half-maximal at 2200 ± 300 nM (IC50).
Take `CC#Cc1ccc2ccc3cccc4ccc1c2c34` [1PP, 1-(1-propynyl)pyrene]: in data set [1], the “Reverse Type I spectra ΔAmax/Ks” value worked out at 0.0156 and the “Reverse Type I spectra ΔAmax” value was found to be 0.042 ± 0.002. In data set [3], this molecule came in with an IC50 of 45 ± 5 nM.
Turning to `C#Cc1cc2cccc3ccc4cccc1c4c32` [4EP, 4-ethynylpyrene], in data set [1], the “Reverse Type I spectra ΔAmax/Ks” value is recorded as 0.0130 and the “Reverse Type I spectra ΔAmax” value is 0.052 ± 0.004. For the same molecule, the 50% inhibitory concentration (IC50) in data set [3] is 170 ± 30 nM.
Taken in the same sequence, the figures for `CC#Cc1ccc2ccc3ccccc3c2c1` [3PPh, 3-(1-propynyl)phenanthrene] were 0.0194, 0.060 ± 0.006 and 67 ± 8 nM.
Turning to `C#Cc1ccc2ccccc2c1` [2EN, 2-ethynylnaphthalene], in data set [1], the “Reverse Type I spectra ΔAmax/Ks” value is 0.0033 and the “Reverse Type I spectra ΔAmax” value was found to be 0.049 ± 0.002. Besides, the IC50 in data set [3] was 1200 ± 200 nM.
In the case of `COc1ccc(-c2cc(=O)c3ccc(O)c(O)c3o2)cc1` [4M78DHF], in data set [1], the Kd came to 56000 ± 15000 nM, the “Reverse Type I spectra ΔAmax/Ks” value is given as 0.0013 and the “Reverse Type I spectra ΔAmax” value was determined as 0.073 ± 0.009. In data set [3], this molecule showed an IC50 of 1100 ± 200 nM.
Consider `C#Cc1ccc2c(ccc3ccccc32)c1` [2EPh, 2-ethynylphenanthrene], for which, in data set [1], the “Reverse Type I spectra ΔAmax/Ks” value came to 0.0190 and the “Reverse Type I spectra ΔAmax” value turned out to be 0.080 ± 0.004. This molecule also returned an IC50 in data set [3] of 210 ± 30 nM.
With `COc1ccc(-c2cc(=O)c3ccccc3o2)cc1OC` [34DMF, 3′,4′-dimethoxyflavone], in data set [1], the Kd came out at 24000 ± 3200 nM, the “Reverse Type I spectra ΔAmax/Ks” value is recorded as 0.0021 and the “Reverse Type I spectra ΔAmax” value was 0.051 ± 0.003. Moreover, the IC50 in data set [3] stood at 260 ± 30 nM.
As to `COc1ccc(-c2cc(=O)c3ccc(O)c(O)c3o2)cc1OC` [34DM78DHF, 3′,4′-dimethoxy-7,8-dihydroxyflavone], in data set [1], the dissociation constant (Kd) was determined as 190000 ± 17000 nM, the “Reverse Type I spectra ΔAmax/Ks” value is given as 0.0003 and the “Reverse Type I spectra ΔAmax” value is recorded as 0.053 ± 0.003. This molecule came in with an IC50 in data set [3] of 19000 ± 2300 nM.
`Oc1cc(O)cc(/C=C/c2ccc(O)c(O)c2)c1` [Piceatannol (Pice), Piceatannol, reference compound]: in data set [1], the Kd worked out at 21000 ± 1100 nM, the “Reverse Type I spectra ΔAmax/Ks” value came out at 0.0016 and the “Reverse Type I spectra ΔAmax” value is 0.034 ± 0.001. Also, in data set [3], half-maximal inhibition (IC50) required 830 ± 140 nM.
`C#Cc1cc2ccc3cccc4ccc(c1)c2c34` [2EP, 2-ethynylpyrene]: in data set [1], the “Reverse Type I spectra ΔAmax/Ks” value worked out at 0.0209 and the “Reverse Type I spectra ΔAmax” value amounted to 0.071 ± 0.001. The IC50 in data set [3] stood at 38 ± 4 nM.
`C#Cc1ccc2ccc3ccccc3c2c1` [3EPh, 3-ethynylphenanthrene]: in data set [1], the “Reverse Type I spectra ΔAmax/Ks” value is recorded as 0.0237 and the “Reverse Type I spectra ΔAmax” value is recorded as 0.071 ± 0.001. This molecule gave an IC50 in data set [3] of 160 ± 20 nM.
Consider `COc1ccccc1-c1cc(=O)c2ccccc2o1` [2MF, 2′-methoxyflavone], for which, in data set [1], binding was put at a Kd of 56000 ± 8000 nM, the “Reverse Type I spectra ΔAmax/Ks” value is recorded as 0.0013 and the “Reverse Type I spectra ΔAmax” value is on record as 0.070 ± 0.005. In data set [3], this molecule yielded an IC50 of 320 ± 60 nM.
Consider `COc1cccc(-c2cc(=O)c3ccc(O)c(O)c3o2)c1` [3M78DHF, 3′-methoxy-7,8-dihydroxyflavone], for which, in data set [1], binding was put at a Kd of 140000 ± 15000 nM, the “Reverse Type I spectra ΔAmax/Ks” value was found to be 0.0003 and the “Reverse Type I spectra ΔAmax” value worked out at 0.044 ± 0.005. The IC50 in data set [3] stood at 3700 ± 500 nM.
For `COc1ccc(-c2cc(=O)c3ccccc3o2)cc1` [4MF, 4′-methoxyflavone], the affinity in data set [1], expressed as Kd, was 66000 ± 11000 nM. Besides, 230 ± 30 nM corresponded to half-maximal inhibition in data set [3] (IC50).
Turning to `C=Cc1ccc2ccc3cccc4ccc1c2c34` [1VP, 1-vinylpyrene], in data set [1], binding was characterised by a dissociation constant (Kd) of 4400 ± 300 nM, the “Reverse Type I spectra ΔAmax/Ks” value is 0.0209 and the “Reverse Type I spectra ΔAmax” value worked out at 0.092 ± 0.003. In addition, in data set [3], the IC50 was found to be 150 ± 20 nM.
`c1ccc2c(c1)ccc1ccccc12` [Phenanthrene, phenanthrene, reference compound]: in data set [1], binding was characterised by a dissociation constant (Kd) of 14000 ± 1700 nM, the “Reverse Type I spectra ΔAmax/Ks” value was 0.0031 and the “Reverse Type I spectra ΔAmax” value was determined as 0.044 ± 0.002. Also, in data set [3], the half-inhibitory concentration (IC50) came to 510 ± 100 nM.
Regarding `COc1ccccc1-c1cc(=O)c2c(O)cc(O)cc2o1` [2M57DHF, 2′-methoxy-5,7-dihydroxyflavone], in data set [1], the Kd worked out at 64000 ± 10000 nM, the “Reverse Type I spectra ΔAmax/Ks” value was found to be 0.0016 and the “Reverse Type I spectra ΔAmax” value is recorded as 0.100 ± 0.011. For the same molecule, inhibition in data set [3] was half-maximal at 240 ± 20 nM (IC50).
